The values that follow come from ChEMBL document CHEMBL1201862, “PubChem BioAssay data set” (2004).

As usually defined, the EC50 is the concentration needed to bring the measured effect to its halfway point. The CC50 is the concentration that lowers cell viability or growth by half. For orientation: IC50 means the midpoint of a concentration-inhibition curve. A word on the AC50: it is the midpoint of the concentration-response curve, whichever way the signal moves.

Assay [1] in a line: luciferase reporter signal suppression in cells – H4 neuroglioma cells, luminescence, dose response (AID 1990). In kind it is functional, cell-based.
Assay [2] in a line: Luminescence Cell-Based Dose Response HTS to Identify Inhibitors of 5'UTR Stem-Loop Driven Prion Protein mRNA Translation in H4 Neuroglioblastoma Cells. [Related pubchem assays: 1827 (Project Summary), 1813 (Primary HTS)]. It counts as functional.
A short description of assay [3]: alpha-synuclein stem-loop luciferase translation blockers – H4 neuroglioma cells, luminescence, confirmation (AID 1988). It counts as functional, cell-based.
The nature of assay [4]: viability loss in HeLa cells – cytotoxicity control for MgcRacGAP inhibitor project, dose response (AID 624300). It counts as functional.
Assay [5] concerns the target T1, Rac GTPase-activating protein 1 (Homo sapiens, UniProt Q9H0H5).
T1 sequence (Q9H0H5 whole entry): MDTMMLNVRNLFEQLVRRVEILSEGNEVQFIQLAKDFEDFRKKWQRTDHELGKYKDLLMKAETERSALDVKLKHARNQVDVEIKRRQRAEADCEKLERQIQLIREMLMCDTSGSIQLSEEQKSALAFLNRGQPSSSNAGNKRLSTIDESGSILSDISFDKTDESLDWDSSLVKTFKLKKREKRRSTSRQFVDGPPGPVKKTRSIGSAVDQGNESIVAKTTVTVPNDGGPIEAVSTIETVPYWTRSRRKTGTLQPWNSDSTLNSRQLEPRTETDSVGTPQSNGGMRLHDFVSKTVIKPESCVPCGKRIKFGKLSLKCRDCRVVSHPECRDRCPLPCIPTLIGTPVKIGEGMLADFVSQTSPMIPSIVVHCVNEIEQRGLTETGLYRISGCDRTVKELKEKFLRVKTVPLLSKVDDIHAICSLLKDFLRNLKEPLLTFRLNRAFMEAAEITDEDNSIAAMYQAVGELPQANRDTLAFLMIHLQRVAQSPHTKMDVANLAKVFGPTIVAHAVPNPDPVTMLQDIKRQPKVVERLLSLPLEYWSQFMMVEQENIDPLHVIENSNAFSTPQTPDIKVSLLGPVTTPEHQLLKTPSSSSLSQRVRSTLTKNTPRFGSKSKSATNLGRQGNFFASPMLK
Nature of the assay: blockers of MgcRacGAP-driven Rac1 GTP hydrolysis – biochemical, ADP Hunter fluorescence, primary and confirmatory, confirmation (AID 624330). In kind it is functional.

Assay [6] in a line: blockers of HIV-1 envelope-mediated cell-cell fusion – cherry-pick, dose response (AID 652057). In kind it is functional, cell-based.
The nature of assay [7]: viability loss in CEM21 cells – cell-based, CellTiter-Glo luminescence, cherry-picked, cytotoxicity control for viral fusion inhibitor project, dose response (AID 652042).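 Also: potency for signal decrease meaning cytotoxicity.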 In kind it is functional. On the technique in general: ATP-based viability assays read luminescence as a measure of living cells.
Assay [8] is described as follows: blockers of HIV-1 ZM109 envelope-driven cell-cell fusion – HeLa effector, CEM target cells, luciferase, cherry-pick, dose response (AID 652058).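 Also: luciferase signal from HIV-1 Env mediated cell-cell fusion of effector and target cells.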 It counts as functional, cell-based.
Assay [9] in a line: off-target signal loss in HeLa-CEM21 co-culture – HeLa F-luc CTL cells, cherry-picked, counter-screen for HIV-1 Env fusion inhibitor project, dose response (AID 652040).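 Also: potency for signal decrease marking cytotoxic or nonspecific inhibition.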 It counts as functional, cell-based. On the technique in general: The purpose of a counterscreen is to sort out artefacts and off-target activity.
The nature of assay [10]: HIV-1 AD8 envelope cell-cell fusion blockers – cherry-pick, dose response (AID 652062).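 Also: luciferase signal from cell-cell fusion driven by HIV-1 clade B AD8 Env; potency is for inhibitors of fusion seen as a drop in luminescence.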 It counts as functional, cell-based.
Assay [11] in a line: blockers of bursicon-stimulated LGR2 cAMP reporter – cell-based, HEK293, CRE-luciferase reporter, cherry pick, set 2, dose response (AID 743343).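 Also: transfected cells were stimulated with diluted bursicon conditioned medium after compound addition.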 It counts as functional. A general note: Reporter assays use an easily measured gene product as a stand-in for the process of interest.
Assay [12] can be described thus: blockade of melanocortin 4 receptor signaling – cell-based, plate reader, cherry pick, counter-screen for LGR2 antagonist project, dose response (AID 743444).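 Also: transfected HEK 293 cells stimulated with alpha-MSH peptide; potency of inhibitors of the alpha-MSH evoked signal.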 In kind it is functional.
The nature of assay [13]: Trypanosoma cruzi growth suppression in host cells – NIH3T3 host cells, beta-gal luminescence, confirmation (AID 2044).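 Also: intracellular parasites grown in NIH/3T3 mouse fibroblasts as host cells; luminescent beta-galactosidase reporter signal from transgenic T. cruzi replicating inside host cells; inhibitors lower the luminescence signal.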 It counts as functional, cell-based.
Assay [14] can be described thus: NIH3T3 cell viability loss – ATP luminescence, mouse fibroblasts, counter-screen, dose response (AID 2010).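 Also: cells exposed to compound for about 90 hours before reading.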 In kind it is functional, cell-based.
Assay [15] addresses T2, DNA repair protein RAD52 homolog (Homo sapiens, UniProt P43351).
T2 sequence (P43351 whole entry): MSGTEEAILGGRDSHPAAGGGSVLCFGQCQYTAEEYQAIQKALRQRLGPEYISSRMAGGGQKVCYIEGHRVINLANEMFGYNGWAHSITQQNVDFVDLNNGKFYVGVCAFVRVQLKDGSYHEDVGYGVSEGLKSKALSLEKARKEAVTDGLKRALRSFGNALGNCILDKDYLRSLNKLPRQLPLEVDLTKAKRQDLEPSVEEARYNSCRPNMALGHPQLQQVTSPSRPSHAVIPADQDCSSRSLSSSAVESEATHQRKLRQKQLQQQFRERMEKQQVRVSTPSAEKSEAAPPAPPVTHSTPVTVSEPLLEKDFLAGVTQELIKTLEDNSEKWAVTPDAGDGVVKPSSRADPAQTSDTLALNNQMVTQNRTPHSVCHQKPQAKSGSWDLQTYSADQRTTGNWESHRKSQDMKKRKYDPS
In kind it is functional, biochemical.

Assay [16] in a line: reduced cellular PGC1a acetyl-lysine signal – cell-based, cherry-picked samples, dose response (AID 720514).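 Also: potency may reflect raised or lowered acetylation signal.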 It counts as functional.
A short description of assay [17]: P. falciparum Dd2 growth inhibitors, dose response, SYBR Green, cherry-picked samples (AID 1159567). It counts as functional, cell-based.

The source made the active and inactive calls. Some results are limits rather than exact numbers.

Turning to `CCOC(=O)c1sc2nc(CSc3ccccc3)nc(N3CCCN(C)CC3)c2c1C`, the EC50 is 16.9 µM (active) in [1], > 120 µM (not active) in assay [2] and 8.64 µM (active) in assay [3]. In [4], the CC50 is 53.8 µM (active). Besides, the IC50 in assay [5] is 149 µM (active).

On to `CN1CC(c2ccccc2Cl)C2(COc3ccccc3C2=O)C12C(=O)Nc1ccccc12` (configuration not stated), for which the AC50 in [6] is 4.21 µM (active); in assay [7] it was 65.3 µM (active); in assay [8] it was 3 µM (active); in assay [9] it was 6.24 µM (active); in [10], 10.6 µM (active).

For the compound `Cc1ccc(NC(=O)c2cnn(-c3ccccc3)c2C)cc1C`, the AC50 is 7.23 µM (active) in assay [11] and 4.12 µM (active) in [12].

As to `COc1ccc(C2c3ccc4ccccc4c3Oc3ncn(CCN(C)C)c(=N)c32)cc1` (configuration not stated), the figures for the EC50 in assay [13] and in assay [14] were 1.34 µM (active) and 22.1 µM (active), respectively. Moreover, the AC50 in [15] was 19.9 µM (active).

`Cc1sc2nc(CN3CCCCC3)nc(Nc3ccc4c(c3)OCCO4)c2c1C`: the AC50 in [15] is 22.2 µM (active).

As for `CC1=C(Cl)C2=NS(=O)(=O)CCN2C=C1Cl`, the AC50 in assay [16] is 3.55 µM (active).

Take `O=C1CCCc2c1[nH]c1ccc(Cl)cc21`: the EC50 in [3] is 9.1 µM (active). For the same compound, the AC50 in assay [6] was 3.39 µM (active); in assay [8] it was 15 µM (active); in assay [9], < 0.26 µM (active); in assay [10], 6.38 µM (active).

Regarding `C[C@H]1CN([C@@H](C)CO)C(=O)Cc2cc(NC(=O)Nc3ccc4c(c3)OCO4)ccc2O[C@H]1CN(C)S(=O)(=O)c1ccccc1`, the AC50 in assay [6] is 0.991 µM (active); in assay [7], 37.3 µM (active); in [8] it was 0.739 µM (active); in [10], 7.28 µM (active).

As for `C[C@H]1CN([C@@H](C)CO)C(=O)Cc2cc(NC(=O)Nc3ccc4c(c3)OCO4)ccc2O[C@H]1CN(C)S(=O)(=O)c1cccs1`, the AC50 is 1.93 µM (active) in assay [6], 49.9 µM (active) in assay [7] and 22.3 µM (active) in assay [10].

For the compound `CC(=O)Nc1cccc(Oc2nc(NCCN(C)C)nc3ccsc23)c1`, the AC50 in assay [15] was 11.1 µM (active).

`N#Cc1cccc(-c2ccc([C@@H]3[C@@H]4CN(S(=O)(=O)c5ccc(-c6ccccc6)cc5)C[C@H]3N4)cc2)c1`: the half-maximal activity concentration (AC50) in assay [16] was 1.82 µM (active).

Turning to `N#Cc1ccc(-c2ccc([C@@H]3[C@@H]4CN(S(=O)(=O)c5ccc(F)cc5)C[C@H]3N4)cc2)cc1`, the results for the AC50 in [16] and in assay [17] were 1.57 µM (active) and 4.69 µM (active), respectively.

As for `CC(C)(C)n1nc(Cc2cccc3ccccc23)c2c(N)ncnc21`, the AC50 in [6] is 7.07 µM (active); in [7], 46.8 µM (active); in assay [9] it was 31.1 µM (active); in assay [10], 34.5 µM (active).
